Drawing on PMC10455339, “Combining the Peptide RWQWRWQWR and an Ethanolic Extract of Bidens pilosa Enhances the Activity against Sensitive and Resistant Candida albicans and C. auris Strains” (Journal of Fungi, 2023), this text covers MIC, MFC and Reported active concentration for 15 compounds.

As usually defined, the MFC is the lowest tested concentration that kills the fungus rather than only halting it.

Values after ≈ are worked out from the molar mass of the structure shown. Values joined by “and” are separate entries in the source; they are usually repeats but may differ in a detail not shown here. Identical values can stand only once. Like-named read-outs stand apart in the source and are kept apart here. Ends that are not written are not given here.

One experiment deals with C. albicans SC5314. The experiment is described as follows: microbe, parasite or virus in culture. Type of experiment: cell-based, Candida albicans. The note with it: n = 3; for MIC: CLSI M27-A4 modified, RPMI 1640, 37 °C, 48 h, MIC = 50% growth inhibition; for MFC: subculture on SDA 24 h 37 °C, MFC = eliminates 100% of growth. How it is done: (§1) For the determination of the MICs, the guidelines of the Clinical Laboratory Standards Institute (CLSI BMD-M27-A4) were used with some modifications. Serial dilutions were made, for peptides from 6.25 to 200 µg/mL and for extracts from 31.2 to 2000 µg/mL, with RPMI 1640 medium in a 96-well microdilution plate (100 µL), and then 100 µL of the adjusted inoculum (0.5–2.5 × 10^3 cells/mL) was added and incubated at 37 °C, and visual and spectrophotometric reading (595 nm) was performed at 48 h. Controls: growth control in RPMI or DMSO, control with a known antifungal: FLC, C. albicans SC5314 (1 µg/mL), C. albicans 256 (64 µg/mL), C. auris 435 (8 µg/mL), and C. auris 537 (128 µg/mL), sterility controls correspond to RPMI medium and SS. The MIC was defined as the minimum concentration of peptide or extract that inhibited 50% of growth compared to the control. To determine the minimal fungicidal concentration (MFC), from the concentrations where no growth was observed, including the controls, a subculture was made on SDA and incubated for 24 h at 37 °C. The MFC was defined as the minimum concentration of peptide or extract that eliminated 100% of the growth compared to the control (n = 3).

A further experiment deals with C. albicans 256-PUJ-HUSI. Nature of the experiment: Antifungal activity (MIC/MFC), broth microdilution. The format is cell-based, Candida albicans. Particulars: FLC-resistant isolate, n = 3; for MIC: CLSI M27-A4 modified, RPMI 1640, 37 °C, 48 h, MIC = 50% growth inhibition; for MFC: subculture on SDA 24 h 37 °C, MFC = eliminates 100% of growth. How it is done: as §1

The subject of the next experiment is C. auris 435-PUJ-HUSI. Nature of the experiment: Antifungal activity (MIC/MFC), broth microdilution. Type of experiment: cell-based, Candida auris. The note with it: FLC-sensitive isolate, n = 3; for MIC: CLSI M27-A4 modified, RPMI 1640, 37 °C, 48 h, MIC = 50% growth inhibition; for MFC: subculture on SDA 24 h 37 °C, MFC = eliminates 100% of growth. Here is the method:
as §1
Background: Dilution methods test growth across graded concentrations, often in twofold steps.

In a further experiment the test system is C. auris 537-PUJ-HUSI. Nature of the experiment: Antifungal activity (MIC/MFC), broth microdilution. The note with it: FLC- and AmB-resistant isolate, n = 3; for MIC: CLSI M27-A4 modified, RPMI 1640, 37 °C, 48 h, MIC = 50% growth inhibition; for MFC: subculture on SDA 24 h 37 °C, MFC = eliminates 100% of growth. Type of experiment: cell-based, Candida auris. Here is the method: as §1

A further experiment has as its system C. albicans. Particulars: cited from earlier work. The source says: Antifungal activity of other phenolic acids, such as chlorogenic acid, has been reported against Candida spp. resistant to FLC, generating a death process similar to apoptosis.
[1] abbreviates: Candida albicans, SC5314, read-out: MIC.
[2] abbreviates: Candida albicans, SC5314, read-out: MFC.
Setting [3] is: Candida albicans, 256PUJHUSI, read-out: MIC.
[4] abbreviates: Candida albicans, 256PUJHUSI, read-out: MFC.
Setting [5] is: Candidozyma auris, 435PUJHUSI, read-out: MIC.
[6] abbreviates: Candidozyma auris, 435PUJHUSI, read-out: MFC.
[7] abbreviates: Candidozyma auris, 537PUJHUSI, read-out: MIC.
The mark [8] stands for this setting: Candidozyma auris, 537PUJHUSI, read-out: MFC.
[9] abbreviates: reported against other C. albicans strains.
Setting [10] is: reported against C. albicans strains.

Consider `O=C(O)/C=C/c1ccc(O)c(O)c1` [Caffeic acid], for which the MIC in the experiment on C. albicans SC5314 (setting [1]), with C. albicans 256-PUJ-HUSI (setting [3]), in the experiment on C. auris 435-PUJ-HUSI (setting [5]) and with C. auris 537-PUJ-HUSI (setting [7]) was > 2000 µg/mL throughout. For the same compound, the minimum fungicidal concentration (MFC) in the experiment with C. albicans SC5314 (setting [2]), in the experiment with C. albicans 256-PUJ-HUSI (setting [4]), with C. auris 435-PUJ-HUSI (setting [6]) and in the experiment with C. auris 537-PUJ-HUSI (setting [8]) was > 2000 µg/mL throughout.
In the case of `O=C(/C=C/c1ccc(O)c(O)c1)O[C@@H](C(=O)O)[C@@H](O)C(=O)O` [Caftaric acid], the MIC in the experiment with C. albicans SC5314 (setting [1]), with C. albicans 256-PUJ-HUSI (setting [3]), in the experiment with C. auris 435-PUJ-HUSI (setting [5]) and in the experiment with C. auris 537-PUJ-HUSI (setting [7]) was > 1000 µg/mL each time. The MFC with C. albicans SC5314 (setting [2]), in the experiment on C. albicans 256-PUJ-HUSI (setting [4]), in the experiment with C. auris 435-PUJ-HUSI (setting [6]) and in the experiment with C. auris 537-PUJ-HUSI (setting [8]) was > 1000 µg/mL throughout.
Take `O=C(/C=C/c1ccc(O)c(O)c1)O[C@@H]1C[C@](O)(C(=O)O)C[C@@H](O)[C@H]1O` [Chlorogenic acid]: the MIC in the experiment on C. albicans SC5314 (setting [1]), in the experiment on C. albicans 256-PUJ-HUSI (setting [3]), with C. auris 435-PUJ-HUSI (setting [5]) and in the experiment on C. auris 537-PUJ-HUSI (setting [7]) was > 1000 µg/mL in each case. Also, the MFC in the experiment on C. albicans SC5314 (setting [2]), with C. albicans 256-PUJ-HUSI (setting [4]), with C. auris 435-PUJ-HUSI (setting [6]) and in the experiment with C. auris 537-PUJ-HUSI (setting [8]) was > 1000 µg/mL in each case.
For the compound `O=C(O)c1cc(O)c(O)c(O)c1` [Gallic acid], the MIC is 125 µg/mL (≈ 0.735 mM) with C. albicans SC5314 (setting [1]), 62.5 µg/mL (≈ 0.367 mM) with C. albicans 256-PUJ-HUSI (setting [3]), 125 µg/mL (≈ 0.735 mM) with C. auris 435-PUJ-HUSI (setting [5]) and 62.5 µg/mL (≈ 0.367 mM) in the experiment with C. auris 537-PUJ-HUSI (setting [7]). Further, the MFC with C. albicans SC5314 (setting [2]) is 250 µg/mL (≈ 1.47 mM); in the experiment with C. albicans 256-PUJ-HUSI (setting [4]) it was 125 µg/mL (≈ 0.735 mM); with C. auris 435-PUJ-HUSI (setting [6]), 1000 µg/mL (≈ 5.88 mM); in the experiment with C. auris 537-PUJ-HUSI (setting [8]) it was 1000 µg/mL (≈ 5.88 mM).
With `C[C@@H]1O[C@@H](OC[C@H]2O[C@@H](Oc3c(-c4ccc(O)c(O)c4)oc4cc(O)cc(O)c4c3=O)[C@H](O)[C@@H](O)[C@@H]2O)[C@H](O)[C@H](O)[C@H]1O` [Rutin], the MIC with C. albicans SC5314 (setting [1]), in the experiment on C. albicans 256-PUJ-HUSI (setting [3]), in the experiment on C. auris 435-PUJ-HUSI (setting [5]) and in the experiment on C. auris 537-PUJ-HUSI (setting [7]) was > 2000 µg/mL in each case. Also, the MFC in the experiment with C. albicans SC5314 (setting [2]), with C. albicans 256-PUJ-HUSI (setting [4]), with C. auris 435-PUJ-HUSI (setting [6]) and in the experiment on C. auris 537-PUJ-HUSI (setting [8]) was > 2000 µg/mL in each case. Besides, the Reported active concentration in the experiment with C. albicans is 1000 µg/mL.
On to “FKCRRWQWRM [Peptide 2, short peptide derived from LfcinB, …]”, for which, in the experiment on C. albicans (setting [9]), the MIC is 17.3 to 17.5 µM.
For the compound “FKCRRWQWRMKKLGA [LfcinB-20, short peptide derived from LfcinB, printed …]”, the MIC in the experiment with C. albicans (setting [10]) is 8 µg/mL.
Regarding “FKCRRWQWRMKKLGA [bLF (or LFB) 17–30, short peptide derived from LfcinB, …]”, the MIC in the experiment with C. albicans (setting [9]) is 5 to 10 µM.
For the compound “GAPSITCVRRAF [Peptide 3, short peptide derived from LfcinB, …]”, the MIC in the experiment with C. albicans (setting [9]) was 635 µM.
On to “Lfcin B-18-42: short peptide derived from LfcinB (FKCRRWQWRMKKLGAPSITCVRRAF; ends and bridges not checked; cysteine pairing not given here; UniProt P24627 36-60, looked up, fragment)”, for which the MIC in the experiment on C. albicans (setting [10]) was 100 µg/mL.
Consider “LfcinB: Bovine lactoferricin, AMP derived from bovine lactoferrin (FKCRRWQWRMKKLGAPSITCVRRAF; ends and bridges not checked; cysteine pairing not given here; UniProt P24627 36-60, looked up)”, for which, in the experiment on C. albicans (setting [10]), the MIC was 0.8 to 400 µg/mL.
On to “RRWQWRMKK [Lfcin B-9, short peptide derived from LfcinB, …]”, for which the MIC with C. albicans (setting [10]) is 25,000–32,000 μg/mL.
For the compound “RWQWHomoFQWR [[^5HomoF]-R-1-R, RWQWHomoFQWR, position 5 replaced by Homophenylalanine]”, the MIC in the experiment on C. albicans SC5314 is 200 μg/mL and 134 μM; in the experiment on C. albicans 256-PUJ-HUSI, 200 μg/mL and 134 μM; in the experiment with C. auris 435-PUJ-HUSI, > 200 μg/mL and > 134 μM; in the experiment with C. auris 537-PUJ-HUSI, > 200 μg/mL and > 134 μM. In addition, the MFC in the experiment with C. albicans SC5314 is > 200 μg/mL and > 134 μM; in the experiment on C. albicans 256-PUJ-HUSI, > 200 μg/mL and > 134 μM; in the experiment with C. auris 435-PUJ-HUSI, > 200 μg/mL and > 134 μM; with C. auris 537-PUJ-HUSI it was > 200 μg/mL and > 134 μM.
On to “RWQWNalQWR [[^5Nal]-R-1-R, RWQWNalQWR, position 5 replaced by Naphthylalanine]”, for which the MIC in the experiment on C. albicans SC5314 was > 200 μg/mL and > 131 μM; with C. auris 435-PUJ-HUSI it was > 200 μg/mL and > 131 μM. The MFC is > 200 μg/mL and > 131 μM against C. albicans SC5314; > 200 μg/mL and > 131 μM in the experiment with C. auris 435-PUJ-HUSI.
For the compound “RWQWRM [Peptide 5, short peptide derived from LfcinB, RWQWRM]”, the MIC in the experiment on C. albicans (setting [9]) was 500 µM.
